For series [1] the following is noted: Table XXII; chain substituent steric parameter; cited from earlier work.
For series [2] the following is noted: Table XXII; chain substituent hydrophobicity parameter; cited from earlier work.
The conditions of series [3]: Table XXII; chain substituent steric parameter; cited from earlier work. This is another data set of the same source.
Series [4] is described as follows: Dye solubility (water, 5% dextrose/water). The series is classed as physicochemical. To be noted: among compounds with enhanced activity. The source says: Dye solubility is also a factor, since compounds having low water solubility are difficult or impossible to include in in vivo testing.
S13 is one of the simplest cyanine dye structures possible (in this nomenclature the S refers to the sulfur, the 1 indicates one carbon on the nitrogen and 3 indicates a 3 methine chain). […] A synthetic challenge will be to enhance the activity/selectivity of this dye and retain its good water solubility. [drawing 23]

Series [5] concerns CX-1 Human Colon Carcinoma. Nature of the series: Clonogenic dye screening assay, CX-1 cells (IC50). The series is classed as cell-based. To be noted: for IC50: Homo sapiens; for CV/CX (selectivity, kill ratio): ratio of IC50 in normal CV-1 line to IC50 in carcinoma CX-1 line. The procedure, abridged: (§1)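 Cells seeded 16-30 h ahead (2000 CX-1 or 1000 CV-1 per well), exposed to serially diluted dyes for 3 h at 37 °C, rinsed three times, then grown into colonies. Eight-point curves spanned 0.32-0.0015 μg/mL (CX-1) and 3.2-0.025 μg/mL (CV-1). IC50 is the concentration killing 50% of cells.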

The test system of series [6] is CV-1 Normal Monkey Kidney Epithelial. Nature of the series: Clonogenic dye screening assay, CV-1 cells (IC50). The series is classed as cell-based, African green monkey. As to conditions: Primates. In short, it runs like this: as §1
For series [7] the following is noted: Table XXII; chain substituent electronic parameter; cited from earlier work.
A short description of series [8]: Octanol/water partition (log P). The series is classed as physicochemical. To be noted: shaking with water and octanol. The source says: Octanol/water partition coefficients (log P) are usually used as a model of drug transport between water and the biophase, as disclosed in A. Leo, C. Hansch, Substituent Constants—for Correlation Analysis in Chemistry. and' Biology, Wiley, New York, 1979 and A. Leo, C. Hansch, D. Elkins, Chem. Rev., 6, 525 (1971), both incorporated herein by reference. Often partition coefficients can be measured simply by shaking the compound with a mixture of water and octanol and determining the concentration of the solute in either solvent. P is equal to the concentration of the solute in octanol divided by its concentration in water. In general, it is possible to measure log P values ranging from −4.0 to 6.0. The situation is also more complicated when the species is charged because of the effects of ion pairing.

A short description of series [9]: Clonogenic dye screening assay, CX-1 cells (IC50). The series is classed as cell-based, human. As to conditions: Homo sapiens, CX-1, Table XII column 5; unit from method; read-out: CV (Table XII). The procedure, abridged:
as §1

The nature of series [10]: In vivo tests (toxicity). From the text: Benzothiazole is by far the next best.
Setting [11] is: CX-1, 3 hrs treatment, colonies after 7-10 days, unit from method, read-out: CX (IC50 in the CX-1 cell line).
[12] abbreviates: CV-1, 3 hrs treatment, colonies after 7-10 days, unit from method, read-out: CV (IC50 in the CV-1 cell line).

Where two headings read alike, the source gives them in different places.

For `CN1/C(=C/C=C/c2sc3ccccc3[n+]2C)Sc2ccccc21` [Dye D-100], the MR in series [1] was 0.103. Besides, the π in series [2] is given as 0.00. In addition, in series [3], the B1 is reported as 1.00 and the L is 2.06. Besides, the solubility entry in [4] is “most desirably soluble”. In series [5] (setting [11]), the IC50 was 0.005 µg/mL. Also, in series [5] (CX-1, Table XX, thiacarbocyanine nitrogen substituents, CX-1 cells, read-out: CX), the IC50 was below 0.005 µg/mL. The Selectivity in [5] (Table 1, cell line not given, values equal CV/CX of Table II) is 100. In series [5] (Table XX, ratio given a value of 1 where dye inactive), the CV/CX was determined as 100.0. Moreover, the “CV/CX (selectivity, kill ratio)” value in series [5] was 100. In series [6] (setting [12]), the IC50 came out at 0.5 µg/mL. For the same molecule, in [6] (CV-1, Table XX, thiacarbocyanine nitrogen substituents, CV-1 cells, read-out: CV), the IC50 was 0.5 µg/mL. For the same molecule, in [7], the F is 0.00, the R is 0.00, the σm is recorded as 0.00 and the σp is 0.00.

As for `CCN1C(=CC=Cc2sc3ccccc3[n+]2CC)Sc2ccccc21.[I-]` [3,3′-diethylthiacarbocyanine iodide], the octanol/water partition result in series [8] was “partition completely into the octanol phase”.

On to `CCN1/C(=C/C=C/c2sc3cc4c(cc3[n+]2CC)OCO4)Oc2ccccc21` [Dye D-163], for which the IC50 in series [5] (setting [11]) is 0.3 µg/mL; in [9], below 0.005 µg/mL; in [6] (setting [12]), 0.3 µg/mL. The “CV/CX (selectivity, kill ratio)” value in series [5] is listed as above 60.0.

Take Indole: the “CV/CX (selectivity, kill ratio)” value in series [5] is reported as “highest selectivity”. In [10], the toxicity in vivo result is listed as “high toxicity”.

These data come from patent US20060099712A1, “Correlation of anti-cancer activity of dyes with redox potentials” (Eastman Kodak Company, priority 2004, published 2006).
